{"source": "patent US20240390369A1", "about": "“METHODS FOR DETERMINING RESPONSIVENESS TO TYK2 INHIBITORS” (Bristol-Myers Squibb Company, priority 2021, published 2024)", "system": "patients with psoriatic arthritis", "assay": "Phase 2 trial in psoriatic arthritis: PASI75 response at week 16", "assay_type": "in vivo, human", "conditions": "for Number of subjects: 12 mg QD", "experimental": "In a double-blind Phase 2 trial, 203 patients with psoriatic arthritis were randomized into three groups: deucravacitinib 6 mg once daily (N=70), deucravacitinib 12 mg once daily (N=67), or placebo (N=66). All subjects had active psoriatic arthritis according to the Classification Criteria for Psoriatic Arthritis (CASPAR); for active disease, these criteria required ≥3 tender joint count, ≥3 swollen joint count, and a C-reactive protein level above 3 mg/L. Other inclusion criteria included the following: presence of at least one plaque psoriasis lesion, and prior treatment failure with a non-biologic disease modifying anti-rheumatic drug, a non-steroidal anti-inflammatory drug, or a steroid. With respect to treatment history, approximately 70% of subjects had not received prior treatment with a biologic and were biologic naïve, while up to 30% of subjects had failed or had been intolerant to one TNF-inhibitor (TNF=Tumor necrosis factor, also known as TNFα). Randomization was stratified by prior TNF-inhibitor use (experienced/naïve) and body weight (<90 kg and ≥90 kg).\nClinical measures included the Psoriasis […] (PASI) score for skin psoriasis, American College of Rheumatology 20 (ACR20) response, Psoriatic Arthritis Disease Activity Score (PASDAS), Health Assessment Questionnaire-Disability Index (HAQ-DI), and Disease Activity Score 28 CRP (DAS28). To evaluate the predictive value of different protein measurements for the clinical response to deucravacitinib, baseline protein concentrations for responders and non-responders, as defined by ACR20 or PASI75 at week 16, were compared for each arm (placebo, 6 mg deucravacitinib once-daily, and 12 mg deucravacitinib once-daily).\nIn addition, a logistic regression model was fit, to determine whether baseline disease score (dichotomized by the median baseline score, into baseline score high and baseline score low groups) was associated with response status. The model generated an odds ratio for each dosed arm versus placebo, in baseline score high and baseline score low groups.\nBoxplots for baseline protein level by response were generated with a horizontal line indicating the median protein level at baseline. For each treatment arm, a two-sample t-test was performed to test whether mean baseline serum protein level was different in responders versus non-responders. A Wilcoxon rank sum test (Mann-Whitney U test) was also performed to evaluate the difference in median serum protein level between responders and non-responders. Further, barplots of ACR20 and PASI75 response rate at week 16 for each treatment arm were generated for all subjects (protein level high and protein level low subjects, dichotomized according to median baseline level). Line plots of ACR20 and PASI75 response rate over time for each treatment arm were generated for protein level high and protein level low groups. Logistic regression models were also fit to evaluate associations between baseline protein levels and clinical outcome.\nFor certain analyses described herein, patients were dichotomized by median values (e.g., of the proteins listed above or other measures) into “high” and “low” groups, such that the high group had values above the median and the low group had values less than or equal to the median.\nIn addition, logistic regression models were fit for response measures ACR20 and PASI75, to generate the odds ratio of each of the deucravacitinib treatment arms versus placebo, in BD2-high and BD2-low groups. The following logistic regression models were used: • For ACR20 response status: ACR20 (Y/N)=treatment arm+BD2 group+treatment arm*BD2 group+TNF-inhibitor use+baseline weight (continuous). • For PASI75 response status: PASI75 (Y/N)=treatment arm+BD2 group+treatment arm*BD2 group+TNF-inhibitor use+baseline weight (continuous). […]", "note": "Several values for one entry are separate records, joined by “and”; a condition that tells them apart may be missing. Identical values can stand only once.", "data": [{"smiles": "[2H]C([2H])([2H])NC(=O)c1nnc(NC(=O)C2CC2)cc1Nc1cccc(-c2ncn(C)n2)c1OC", "note": "[deucravacitinib, 6-(cyclopropanecarboxamido)-4-((2-methoxy-3-(1-methyl-1H-1,2,4-triazol-3-yl)phenyl)amino)-N-(methyl-d3)pyridazine-3-carboxamide]", "values": [{"measurement": "Number of subjects", "setting": "PASI75 responder at week 16, above median baseline IL-19 level", "value": 20}, {"measurement": "Number of subjects", "setting": "PASI75 responder at week 16, below baseline PASI median 6.6", "value": 11}, {"measurement": "Number of subjects", "setting": "PASI75 responder at week 16, below median baseline BD2 level", "value": 19}, {"measurement": "Number of subjects", "setting": "PASI75 responder at week 16, below median baseline IL-17A level", "value": 12}, {"measurement": "Number of subjects", "setting": "PASI75 responder at week 16, below median baseline IL-19 level", "value": 10}, {"measurement": "Number of subjects", "setting": "PASI75 responder, BD2-high-PASI-high", "value": 13}, {"measurement": "Number of subjects", "setting": "PASI75 responder, BD2-high-PASI-low", "value": 7}, {"measurement": "Number of subjects", "setting": "PASI75 responder, BD2-low-PASI-high", "value": 6}, {"measurement": "Number of subjects", "setting": "PASI75 responder, BD2-low-PASI-low", "value": 4}, {"measurement": "Number of subjects", "setting": "PASI75 responder, IL-17A-high-PASI-high", "value": 10}, {"measurement": "Number of subjects", "setting": "PASI75 responder, IL-17A-high-PASI-low", "value": 8}, {"measurement": "Number of subjects", "setting": "PASI75 responder, IL-17A-low-PASI-high", "value": 9}, {"measurement": "Number of subjects", "setting": "PASI75 responder, IL-17A-low-PASI-low", "value": 3}, {"measurement": "Number of subjects", "setting": "PASI75 responder, IL-19-high-PASI-high", "value": 12}, {"measurement": "Number of subjects", "setting": "PASI75 responder, IL-19-high-PASI-low", "value": 8}, {"measurement": "Number of subjects", "setting": "PASI75 responder, IL-19-low-PASI-high", "value": 7}, {"measurement": "Number of subjects", "setting": "PASI75 responder, IL-19-low-PASI-low", "value": 3}, {"measurement": "Odds Ratio, PASI75 response status", "setting": "All patients, 6 mg QD vs placebo, not adjusted for baseline disease activity", "value": 2.88}, {"measurement": "Odds Ratio for PASI75 response", "setting": "All patients, 6 mg QD vs placebo, week 16", "value": 2.88}, {"measurement": "Odds Ratio, PASI75 response status", "setting": "All patients, 6 mg QD vs placebo, week 16, adjusted for baseline PASI score", "value": "3.052 and 3.05"}, {"measurement": "Odds Ratio, PASI75 response status", "setting": "All patients, 12 mg QD vs placebo, not adjusted for baseline disease activity", "value": "5.781 and 5.78"}, {"measurement": "Odds Ratio for PASI75 response", "setting": "All patients, 12 mg QD vs placebo, week 16", "value": 5.781}, {"measurement": "Odds Ratio, PASI75 response status", "setting": "All patients, 12 mg QD vs placebo, week 16, adjusted for baseline PASI score", "value": "6.494 and 6.49"}, {"measurement": "Odds Ratio for PASI75 response", "setting": "All patients, deucravacitinib treatment arms combined vs placebo, week 16", "value": 3.998}, {"measurement": "Odds Ratio, PASI75 response status", "setting": "All patients, treatment arms combined vs placebo", "value": 3.998}, {"measurement": "PASI75 response rate at week 16", "setting": "BD2-high group, 6 mg QD and 12 mg QD vs placebo arm (FIG. 7)", "value": "higher in both 6 mg QD and 12 mg QD treatment arms compared to the placebo arm"}, {"measurement": "Odds Ratio for PASI75 response", "setting": "BD2-high-PASI-high, 6 mg QD vs placebo, week 16", "value": 29.67}, {"measurement": "Odds Ratio for PASI75 response", "setting": "BD2-high-PASI-high, 12 mg QD vs placebo, week 16", "value": 43.084}, {"measurement": "Odds Ratio for PASI75 response", "setting": "BD2-high-PASI-low, 6 mg QD vs placebo, week 16", "value": 2.331}, {"measurement": "Odds Ratio for PASI75 response", "setting": "BD2-high-PASI-low, 12 mg QD vs placebo, week 16", "value": 10.995}, {"measurement": "Odds Ratio for PASI75 response", "setting": "BD2-low-PASI-high, 6 mg QD vs placebo, week 16", "value": 0.825}, {"measurement": "Odds Ratio for PASI75 response", "setting": "BD2-low-PASI-high, 12 mg QD vs placebo, week 16", "value": 7.787}, {"measurement": "Odds Ratio for PASI75 response", "setting": "BD2-low-PASI-low, 6 mg QD vs placebo, week 16", "value": 1.093}, {"measurement": "Odds Ratio for PASI75 response", "setting": "BD2-low-PASI-low, 12 mg QD vs placebo, week 16", "value": 0.967}, {"measurement": "Odds Ratio for PASI75 response", "setting": "BD2 high (baseline above median 9,265 ng/L), 6 mg QD vs placebo, week 16", "value": 10.905}, {"measurement": "Odds Ratio for PASI75 response", "setting": "BD2 high (baseline above median 9,265 ng/L), 12 mg QD vs placebo, week 16", "value": 24.118}, {"measurement": "Odds Ratio for PASI75 response", "setting": "BD2 high, treatment arms combined vs placebo, week 16", "value": 15.415}, {"measurement": "Odds Ratio for PASI75 response", "setting": "BD2 low, 6 mg QD vs placebo, week 16", "value": 0.938}, {"measurement": "Odds Ratio for PASI75 response", "setting": "BD2 low, 12 mg QD vs placebo, week 16", "value": 1.695}, {"measurement": "Odds Ratio for PASI75 response", "setting": "BD2 low, treatment arms combined vs placebo, week 16", "value": 1.274}, {"measurement": "Odds Ratio for PASI75 response", "setting": "Baseline PASI high (above median 6.6), 6 mg QD vs placebo, week 16", "value": "6.94 and 6.937"}, {"measurement": "Odds Ratio for PASI75 response", "setting": "Baseline PASI high (above median 6.6), 12 mg QD vs placebo, week 16", "value": 15.75}, {"measurement": "Odds Ratio for PASI75 response", "setting": "Baseline PASI low (at or below median 6.6), 6 mg QD vs placebo, week 16", "value": "1.26 and 1.258"}, {"measurement": "Odds Ratio for PASI75 response", "setting": "Baseline PASI low (at or below median 6.6), 12 mg QD vs placebo, week 16", "value": 2.454}, {"measurement": "Odds Ratio, PASI75 response status", "setting": "CRP high, 6 mg QD vs placebo", "value": 3.54}, {"measurement": "Odds Ratio, PASI75 response status", "setting": "CRP high, 12 mg QD vs placebo", "value": 9.78}, {"measurement": "Odds Ratio, PASI75 response status", "setting": "CRP high, treatment arms combined vs placebo", "value": 5.405}, {"measurement": "Odds Ratio for PASI75 response", "setting": "CRP level above median and baseline PASI score above median, 6 mg QD vs placebo, week 16", "value": 18.381}, {"measurement": "Odds Ratio, PASI75 response status", "setting": "CRP low, 6 mg QD vs placebo", "value": 2.12}, {"measurement": "Odds Ratio, PASI75 response status", "setting": "CRP low, 12 mg QD vs placebo", "value": 3.72}, {"measurement": "Odds Ratio, PASI75 response status", "setting": "CRP low, treatment arms combined vs placebo", "value": 2.840}, {"measurement": "Odds Ratio, PASI75 response status", "setting": "CRP-high-PASI-high, 6 mg QD vs placebo", "value": 18.381}]}]}
